Legend:
[1] = system: neutrophils, macrophages and microglia in the contused spinal cord; test: Flow cytometry of immune cell counts in contused spinal cord after MaR1 treatment; type: in vivo, C57BI/6 mice; details: vs saline
Description: (§1) All surgical procedures were approved by the Universitat Autònoma de Barcelona Animal Care Committee and followed the guidelines of the European Commission on Animal Care, and the methods for each procedure were carried out in accordance with the approved guidelines. 142 Adult (8 to 10 weeks old) female C57BI/6 mice (Charles River) were anesthetized with ketamine:xylazine (90:10 mg/kg). After performing a laminectomy at the 11th thoracic vertebrae, the exposed spinal cord was contused using the Infinite Horizon Impactor device (Precision Scientific Instrumentation, Lexington, Ky.). Injuries were made using a force of 60 kdynes and tissue displacement ranging between 500-700 μm as reported earlier (Coll-Miro et al., 2016).
(§2) One hour after spinal cord injury, 1 μg of MaR1 (7S,14S-dihydroxy-4Z,8E,10E,12Z,16Z, 19Z-docosahexaenoic acid; Cayman Chemical) was injected intravenously in 100 μl of sterile saline, and then repeated daily thereafter until day 7. Control mice were injected with an equal volume of sterile saline following the same injection protocol. Precautions with regards to the handling of lipid mediators to prevent inactivity due to oxygenation were implemented. The MaR1 dosage was chosen accordingly to be above levels i) of approved MaR1 bioactivity in experimental disease models (Serhan et al., 2015) and ii) above SPM dosages sufficient to exert bioactivity in the CNS with intact and closed blood brain barrier (Marcheselli et al., 2003; Svensson et al., 2007).
(§3) Immune cells from the laminectomized and injured spinal cord were analyzed by flow cytometry at 1, 3, 7, 14, 21 and 28 days post-injury as described previously to study the dynamics of immune cell in spinal cord injury as described previously (Santos-Nogueira et al., 2015; Coll-Miro et al., 2016; Francos-Quijorna et al., 2016). Similarly, spinal cord from mice treated with MaR1 or saline were also harvested at day 1, 3 and 7 post-lesion. Briefly, spinal cords were cut in little pieces and passed through a cell strainer of 70 μm (BD falcon) and the cell suspension was centrifuged twice at 300 g for 10 minutes at 4° C. After cell counts, samples were divided, and cells alone and isotype-matched control samples were generated to control for nonspecific binding of antibodies and for auto-fluorescence. The following antibodies from eBioscience were used at 1:250 concentration: CD45-PerCP, CD11b-PE-Cy7, Ly6C-FITC, Ly6G-PE, Gr1-FITC, F4/80-APC or PE, CD3-FITC, CD4-APC, CD8-APC, CD19-PE, CD206-FITC, CD16/32-PE. After 30 min of incubation with combinations of antibodies at 4° C., cells were then fixed in 1% paraformaldehyde. For intracellular staining, cells were permeabilized with Permeabilization Wash Buffer (Biolegend), incubated with unconjugated rabbit antibodies against iNOS (1:200 Abcam), and goat antibodies against Arg1 (1:200; Santa Cruz) for 30 minutes, followed by staining with Alexa488 or Alexa647 conjugated donkey secondary antibodies against rabbit or goat (1:500 Molecular Probes) for 30 min. Finally, samples were washed and fixed in 1% paraformaldehyde. To perform the analysis, cells were first gated for CD45 to ensure that only infiltrating leukocytes and resident microglia are selected. Then, the following combination of markers were used to identify: microglia (CD45^low, CD11b^+, F4/80^+); macrophages (CD45^high, CD11b^+, F4/80^+); neutrophils (CD45^high, CD11b^+, F4/80^−, Gr1^high); CD4 T-Cells (CD45^+, CD11b^−, CD3^+, CD4^+); CD8 T Cells (CD45^+, CD11b, CD3^+, CD8^+); B cell (CD45^+, CD11b^−, CD3^−, CD19^+). To study the phenotype of microglia and macrophages, these cells were further differentiated based on Ly6C, CD16/32, iNOS, CD206 and Arg1 expression (Coll-Miro et al., 2016; Francos-Quijorna et al., 2016). Analysis of inflammatory cell kinetics at the lesion site was conducted applying objective and quantifiable measures of resolution dynamics as described previously (Pruss et al., 2011). […]

[2] = system: cytokines and chemokines in the contused spinal cord; test: Cytokine protein expression in contused spinal cord (Luminex); type: in vivo, C57BI/6 mice
Description: as §1, §2
Mice treated with saline or MaR1 were perfused with sterile saline and a 5 mm length of spinal cord centered on the lesion was collected at 12 and 24 h after contusion injury and snap-frozen. Spinal cords were homogenized and protein concentration was determined using the DC Protein Assay (Bio-Rad). Samples were concentrated to 4 μg/μl using MicroCon centrifugation filters (Millipore) to ensure equal amounts of protein. Low concentrations of cytokines in the sample result in binding to the filters whereas high concentrations of protein sustain less losses. The protein levels of 32 cytokines and chemokines were then analyzed using the Milliplex MAP Mouse Cytokine/Chemokine magnetic bead panel (Millipore) on a Luminex (Millipore) as per manufacturers' protocol (Francos-Quijorna et al., 2016).

[3] = system: STAT, MAPK, NF-κB and PI3K/Akt signaling; test: Western blotting of inflammatory signaling pathways in contused spinal cord; type: in vivo, C57BI/6 mice; details: vs saline
Description: as §1, §2
Samples used for Luminex assay, were also used to for western blotting. Protein samples (30 μg) were separated by electrophoresis on a 10-15% polyacrylamide gel and transferred onto PVDF membranes (Millipore). The membranes were incubated overnight at 4° C. with rabbit antibodies against phospho NF-kB p65 (1:1000; Cell Signaling), against the phosphorylated form of STAT1 (1:500; Cell Signaling), STAT3 (1:500; Cell Signaling), STAT5 (1:500; Cell Signaling) and STAT6 (1:500; Cell Signaling), JNK (1:500; Santa Cruz), ERK1/2 (1:1000; Cell Signaling), p38 (1:1000; Cell Signaling) and AKT (1:1000; Cell Signaling). Bands were detected using Chemiluminescence (Immobilon Western Chemiluminescence HRP reagent, Millipore) and data quantified by densitometry using Workflow v3 software in a Chemidoc apparatus (Millipore). ß-actin (1:10.000; Sigma Aldrich) was used to ensure equal loading of samples.

[4] = system: macrophages and microglia (Ly6C, iNOS, Arg1); test: Flow cytometry of macrophage and microglia phenotype after SCI; type: in vivo, C57BI/6 mice
Description: as §1, §2, §3

[5] = system: macrophages (CD45high, CD11b+, F4/80+); test: Efferocytosis: neutrophil marker Ly6G inside macrophages after SCI; type: in vivo, C57BI/6 mice; details: 7 days post-lesion; vs saline
Description: All surgical procedures were approved by the Universitat Autònoma de Barcelona Animal Care Committee and followed the guidelines of the European Commission on Animal Care, and the methods for each procedure were carried out in accordance with the approved guidelines. 142 Adult (8 to 10 weeks old) female C57BI/6 mice (Charles River) were anesthetized with ketamine:xylazine (90:10 mg/kg). After performing a laminectomy at the 11th thoracic vertebrae, the exposed spinal cord was contused using the Infinite Horizon Impactor device (Precision Scientific Instrumentation, Lexington, Ky.). […]
Immune cells from the laminectomized and injured spinal cord were analyzed by flow cytometry at 1, 3, 7, 14, 21 and 28 days post-injury as described previously to study the dynamics of immune cell in spinal cord injury as described previously (Santos-Nogueira et al., 2015; Coll-Miro et al., 2016; Francos-Quijorna et al., 2016). […] After cell counts, samples were divided, and cells alone and isotype-matched control samples were generated to control for nonspecific binding of antibodies and for auto-fluorescence. […] Analysis of inflammatory cell kinetics at the lesion site was conducted applying objective and quantifiable measures of resolution dynamics as described previously (Pruss et al., 2011). […]

[6] = system: spinal cord contusion injury; test: Functional assessment of locomotor recovery after SCI (BMS, DigiGait, treadmill); type: in vivo, C57BI/6 mice
Description: as §1, §2
Locomotor recovery was evaluated at 1, 3, 5, 7, 10, 14, 21 and 28 dpi in an open-field test using the nine-point Basso Mouse Scale (BMS) (Basso et al., 2006), which was specifically developed for locomotor testing after contusion injuries in mice. The BMS analysis of hindlimb movements and coordination was performed by two independent assessors blinded for the treatment groups (MaR1 vs saline) and the consensus score taken. […] Moreover, the highest locomotion speed that each mouse was to able locomote for at least 5 seconds was also recorded on the DigiGait treadmill belt. […]

[7] = system: spinal cord contusion injury; test: Histology of secondary tissue damage after SCI; type: in vivo, C57BI/6 mice; details: 28 days post-injury, vs saline
Description: as §1, §2
At 28 days post-injury, mice were perfused with 4% paraformaldehyde in 0.1M-phosphate buffer (PB). A 5 mm length of spinal cord containing the lesion site was removed, cryoprotected with 30% sucrose in 0.1M PB at 4° C., and 10 series of 10 μm thick section were picked up on glass slides. Adjacent sections on the same slide were therefore 100 μm apart. For quantification of myelin area content in the spinal cord analyses, sections were stained with Luxol Fast Blue (Sigma). […]
The epicenter of the injection or contusion injury impact was determined for each mouse spinal cord by localizing the tissue section with the greatest damage using LFB stained section. Myelin content after SCI was calculated by delineating the are of LFB stained tissue. Neuronal survival was assessed by counting the number of NeuN^+ cells in the ventral horns at the injury epicenter and at rostral and caudal areas. Axonal sparing was calculated by counting the number of axons in the dorsal column at the injury epicenter, the region of most pronounced damage. […] All quantifications were performed blinded to the experimental groups with the help of the ImageJ image analysis software.

human macrophages = details: 1 nM concentration; cited from earlier work
[8] = contused spinal cord, 24 h after SCI, MaR1 1 μg i.v., mean ± SEM
[9] = spinal cord tissue 24 hours after SCI

What does the source list for `CC/C=C\C/C=C\C[C@H](O)\C=C/C=C/C=C/[C@@H](O)C/C=C\CCC(=O)O` [MaR1, 7S,14S-dihydroxy-4Z,8E,10E,12Z,16Z, 19Z-docosahexaenoic acid]?
clearance of neutrophils from the contused spinal cord (Ri and T50) ([1]; 1 μg MaR1 i.v. daily for 7 days): accelerated; entrance of blood-borne macrophages into the contused spinal cord ([1]; day 1): not different; neutrophil counts in contused spinal cord ([1]; day 1 post-injury, 1 μg MaR1 i.v. daily from 1 hour after SCI): unaltered; macrophage counts in the contused spinal cord ([1]; day 3 post-injury, not significant): tended to be reduced; reduction of neutrophil counts in the injured spinal cord ([1]; day 7, 1 μg MaR1 i.v. daily): ~50%; macrophage accumulation in the lesioned spinal cord ([1]; day 7 post-lesion): significantly reduced; microglial numbers in the contused spinal cord ([1]; first week following contusion injury): did not attenuate; protein levels of the anti inflammatory cytokine IL-10 ([2]; after SCI, vs saline): did not reduce; CCL3 protein level [2, 8]: 13.3 ± 1.18; CCL4 protein level [2, 8]: 17.7 ± 1.46; CSF3 protein level [2, 8]: 741 ± 118; CXCL1 protein level [2, 8]: 87.5 ± 21.3; CXCL2 protein level [2, 8]: 41.4 ± 7.50; IL-6 protein level [2, 8]: 291 ± 56.7; IL-4 protein levels ([2]; injured spinal cord, both groups): undetected; ERK1/2 activation ([3]; 24 hours post-injury): attenuated; JKN activation ([3]; 24 hours post-injury): remained unaltered; STAT1 activation ([3]; 24 hours post-injury): attenuated; STAT3 activation ([3]; 24 hours post-injury): attenuated; STAT5 activation ([3]; 24 hours post-injury): attenuated; STAT6 activation ([3]; 24 hours post-injury): remained unaltered; p38 activation ([3]; 24 hours post-injury): attenuated; pAkt level [3, 9]: not affected; pP65 level [3, 9]: not affected; percent of Ly6Chigh microglia ([4]; 7 days after SCI): 10.6%±1.1; ratio LyC6low/LyC6high macrophages ([4]; 7 days after SCI, p=0.0036 vs saline): 3.73±0.26; reduction of pro-inflammatory macrophages (Ly6Chigh) ([4]; 7 days after SCI, vs saline): ~50%; increase of Arg-1 expression in macrophages ([4]; 7 days post injury, did not reach statistical significance): ~2 fold; iNOS expression in microglia ([4]; 7 days post injury, not statistically significant): tended to reduce; iNOS expression in macrophages ([4]; 7 days post injury, vs saline): significantly reduced; increase of neutrophil marker Ly6G inside macrophages (neutrophil phagocytosis) [5]: ~2 fold; BMS score ([6]; 28 dpi, nine-point Basso Mouse Scale, 1 μg MaR1 i.v. daily until day 7): 4.58±0.22; DigiGait gait symmetry and stance/width stepping variability ([6]; day 28 post-injury, vs saline): improved; speed of locomotion on the treadmill ([6]; day 28 post-injury, vs saline): significantly faster; neuronal survival in the ventral horn ([7]; caudal regions to the injury epicenter): improved; myelin content (LFB) ([7]; injury epicenter and 200 μm rostral and caudal): increased; axonal sparing (NF+) in the dorsal columns ([7]; injury epicenter): enhanced; demyelination (NF/MBP+) in the dorsal columns ([7]; injury epicenter): reduced; efferocytosis by human macrophages compared with RvD1 (human macrophages): greater efferocytosis
